Legend:
[1] = test system: E. coli MG1655 gloB-mutant; experiment: Toxicity of methylglyoxal, growth inhibition of gloB-mutant; type: cell-based; conditions: OD580 48.5 h after inoculation
Protocol: (§1) E. coli MG1655 wild-type or mutants inactivated in the genes gloA and gloB, respectively, were cultivated in minimal-medium with pure-glycerol (10 g/l) as source for carbon and energy containing different amounts of methylglyoxal. Tests for methylglyoxal indicated a period of at least 72 h of chemical stability. E. coli was cultivated in microtiterplates without agitation at 37° C. under a humid atmosphere. Growth was determined at OD580 48.5 h after inoculation (FIG. 1; black bars, E. coli MG1655 wild-type; grey bars, E. coli MG1655 gloA-mutant; hatched bars, E. coli MG1655 gloB-mutant).

E. coli MG1655 wild-type = experiment: Toxicity of methylglyoxal, growth inhibition of wild-type; type: cell-based; conditions: minimal medium with pure glycerol 10 g/l; microtiterplates, 37° C.; OD580 48.5 h after inoculation
Protocol: as §1

[2] = test system: E. coli MG1655 gloA-mutant; experiment: Toxicity of methylglyoxal, growth inhibition of gloA-mutant; type: cell-based; conditions: gloA (glyoxylase I) mutant, especially sensitive; OD580 48.5 h after inoculation
Protocol: as §1

[3] = Chemical stability of methylglyoxal; type: physicochemical
Protocol: as §1

[4] = test system: E. coli DH5alpha araB glpK mutant with plasmid pDP_mgdf; experiment: Growth on glucose or glycerol as carbon source, glpK mutant with plasmid pDP_mgdf; type: cell-based; conditions: carbon source 10 g/l, 37° C., oxic, 5 days
Description: (§2) Genes gldA from E. coli encoding […], dhaK from Citrobacter freundii encoding dihydroxyacetone kinase (dhaK) and fucO from E. coli encoding propanediol-oxidoreductase were cloned in plasmid pB2araJ to give plasmid pDP_gdf. Plasmid pDP_mgdf additionally contains methylglyoxal synthase from E. coli. According to known biochemical pathways, propanediol oxidoreductase is not relevant for this example. However, we tested plasmid pDP_gdf and its derivative, pDP_mgdf for functional complementation of a glpK-knock out, since these plasmids are relevant for recombinant 1,2-PD production.
(§3) Thus, an inducible unregulated pathway independent of the endogenous route to metabolise glycerol was established. The biomass finally obtained is equal or even higher compared to growth of a control strain (DH5alpha[…]araB) or when glucose is the substrate for growth.

E. coli MG1655 [5] = experiment: Potential of impurities in crude glycerol to substitute for macro-elements of minimal medium (biomass production); type: cell-based; conditions: glycerol 10 g/l, oxic, unregulated pH
[6] = test system: E. coli DH5alpha araB glpK mutant with plasmid pDP_gdf; experiment: Growth on glucose or glycerol as carbon source, glpK mutant with plasmid pDP_gdf; type: cell-based; conditions: carbon source 10 g/l, 37° C., oxic, 5 days
Description: as §2, §3

[7] = test system: E. coli DH5alpha araB-knockout; experiment: Growth on glucose or glycerol as carbon source, control strain; type: cell-based; conditions: no plasmid, carbon source 10 g/l, 37° C., oxic, 5 days
Description: as §2, §3

E. coli MG1655 [8] = experiment: Biomass production of E. coli MG1655 on crude or pure glycerol; type: cell-based; conditions: oxic conditions, unregulated pH, cultivation tubes
Protocol: E. coli was cultured in a defined minimal medium that was designed to contain low levels of phosphate, since phosphate is a known inhibitor of methyglyoxal synthase. Per liter, the medium contained: E. coli strains were routinely propagated in cultivation tubes (total volume 30 ml. Inoculum 5 ml) or glass bottles sealed with rubber-stoppers (total volume 12 ml, inoculum 10 ml) for creating semi-anoxic conditions. The term “cultivation under oxic conditions” implies cultivation in non-sealed containments with agitation. Semi-anoxic in that context means cultivation of strains without agitation in medium that was prepared under oxic conditions and in closed containments, e.g. bottles sealed with rubber-stoppers upon inoculation to avoid diffusing in of external oxygen. Cultivation times varied between 2 and 5 days, for oxic and semi-anoxic conditions, respectively. […] [table]

[9] = test system: E. coli DH5alpha araB glpK mutant; experiment: Growth on glucose or glycerol as carbon source, glpK mutant; type: cell-based; conditions: no plasmid, carbon source 10 g/l, 37° C., oxic, 5 days
Description: as §2, §3

Row | SMILES | sensitivity of growth to methylglyoxal compared with wild-type [1] | extracellular concentration of methylglyoxal at which inhibition of growth was observed (E. coli MG1655 wild-type) [mM] | sensitivity of growth to methylglyoxal compared with wild-type [2] | period of chemical stability [3] | Biomass production OD580 [4] [OD580] | Biomass production [OD580] Ø (E. coli MG1655 [5]; culture broth devoid of nitrogen) [OD580] | Biomass production [OD580] Ø (E. coli MG1655 [5]; culture broth devoid of none) [OD580] | Biomass production [OD580] Ø (E. coli MG1655 [5]; culture broth devoid of phosphate) [OD580] | Biomass production [OD580] Ø (E. coli MG1655 [5]; culture broth devoid of sulfate) [OD580] | Biomass production [OD580] Ø (E. coli MG1655 [5]; culture broth devoid of trace-elements) [OD580] | Biomass production OD580 [6] [OD580] | Biomass production OD580 [7] [OD580] | Biomass production [OD580] Ø (E. coli MG1655 [8]; substrate 0.63 g/l) [OD580] | Biomass production [OD580] Ø (E. coli MG1655 [8]; substrate 1.25 g/l) [OD580] | Biomass production [OD580] Ø (E. coli MG1655 [8]; substrate 2.5 g/l) [OD580] | Biomass production [OD580] Ø (E. coli MG1655 [8]; substrate 10 g/l) [OD580] | Biomass production [OD580] Ø (E. coli MG1655 [8]; substrate 20 g/l) [OD580] | Biomass production [OD580] Ø (E. coli MG1655 [8]; substrate 40 g/l) [OD580] | Biomass production OD580 [9] [OD580]
1 | CC(=O)C=O [methylglyoxal] | significantly more sensitive | ≥ 2.5 | significantly more sensitive | at least 72 h | – | – | – | – | – | – | – | – | – | – | – | – | – | – | –
2 | OCC(O)CO [pure glycerol, glycerol] | – | – | – | – | 5.5 | 1.1 | 2.5 | 1.2 | 1.0 | 2.4 | 4.5 | 2.0 | 0.5 | 0.6 | 1.2 | 5.0 | 6.0 | 5.7 | 0.1

From patent US20110124069A1, “PRODUCTION METHOD” (priority 2008, published 2011)
